# Assay results from patent publication US8686115B2, “Compositions and methods for quantitatively monitoring lipids” (The Board of Trustees of the University of Illinois, priority 2009, dated 2014).
# Tests used:
# [1] = target: T1, DAN-eENTH: epsin 1 ENTH domain variant M10C/C96A/S4W, SEQ ID NO: 2, labeled with DAN at C10 (Homo sapiens, UniProt Q9Y6I3, C96A/M10C/S4W); experiment: Spectrofluorometry of DAN-eENTH binding to PtdIns(4,5)P2-containing LUVs
# T1 construct: The Epsin1 ENTH domain (1-158 amino acids) was subcloned; GST (C, cleaved yes); made in house; host or cells: E. coli BL21 RIL codon plus
# T1 sequence (Q9Y6I3 1-158 S4W/M10C/C96A): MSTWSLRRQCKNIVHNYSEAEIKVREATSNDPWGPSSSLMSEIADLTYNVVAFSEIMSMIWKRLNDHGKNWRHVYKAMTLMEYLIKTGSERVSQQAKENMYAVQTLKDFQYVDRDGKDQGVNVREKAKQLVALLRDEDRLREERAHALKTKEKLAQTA
# Experimental: To check the feasibility of PtdIns(4,5)P2 quantification using our sensor, the change in fluorescence emission of DAN-eENTH upon membrane binding was measured by spectrofluorometry.
# The theoretic curve was then constructed using these parameters.
# Hitachi F-4500 spectrofluorometer was used for all cuvette-based fluorescence measurements. DAN-eENTH (typically 500 nM) was added to POPC/POPS/PtdIns(4,5)P2 (80-x:20:x) (x=0-3 mol %) LUV and the emission spectra of DAN were measured with excitation wavelength set at 392 nm. The same measurements were repeated with LUVs made of different phosphoinositides, e.g., POPC/POPS/PtdIns(3,4,5)P3 (77:20:3).
# [2] = target: T1, DAN-eENTH: epsin 1 ENTH domain variant M10C/C96A/S4W, SEQ ID NO: 2, labeled with DAN at C10; experiment: SPR equilibrium binding of DAN-eENTH to phosphoinositide-containing LUVs
# From the text: Provided herein is an ENTH domain of epsin1, which is linked to 2-dimethylamino-6-acyl-naphthalene (DAN). The ENTH domain contains 3 mutations, which are substitutions: M10C, C96A, and S4W. See SEQ ID NO:2. This DAN-eENTH (M10C, C96A, S4W) is an exceptional, high-affinity phosphatidylinositol-4,5-bisphosphate (PtdIns(4,5)P2)-binding protein.
# The ENTH domain was engineered to introduce a single labeling site (M10C) on the membrane binding surface while removing an endogenous Cys (C96A). We also performed the S4W mutation to suppress its residual affinity for another lipid, phosphatidylinositol-3,4,5-trisphosphate (PtdIns(3,4,5)P3) (PtdIns(4,5)P2/PtdIns(3,4,5)P3=4 for wild type and >10 for the mutant) and to enhance the overall affinity for PtdIns(4,5)P2-containing membranes (ca. 4-fold) (Table 1).
# With respect to FIG. 1, an L1 sensor chip was coated with POPC/POPS/PtdIns(4,5)P2 (77:20:3) LUVs. The proteins were incubated with a given concentration of IP3 for 5 minutes before injecting into the SPR instrument. Kinetic SPR measurements were performed in 20 mM Tris-HCL, pH 7.4, containing 0.16 KCl. […] A lower concentration of DAN-eENTH was used than that of PLCδ PH because the former has much higher affinity that the latter.
# All mutations (S4W, M10C, and C96A) were performed by polymerase chain reaction mutagenesis and verified by DNA sequencing. eENTH may comprise the following sequence:
# E. coli BL21 RIL codon plus (Stratagene) cells were used for protein expression. Cells were grown in Luria broth media containing 100 μg/ml of ampicillin at 37° C. 0.1 mM of Isopropyl β-D-1-thiogalactopyranoside was added to induce over-expression of recombinant proteins when the OD600 reached 0.5-0.8 and cells were grown for additional 6 to 10 hours at 25° C. Cells were harvested by centrifugation and cell pellets were resuspended in 50 mM Tris-HCl buffer (pH 7.4) containing 160 mM KCl, 1 mM phenylmethanesulphonylfluoride, and 5 mM of dithiothreitol (DTT). Cells were lysed by sonication and the lysate was collected by centrifugation at 4° C. The GST-affinity resin (GenScript) for GST-tagged proteins or nickel-nitrilotriacetic acid resin (Qiagen, Valencia, Calif.) for His6-tagged proteins was added into the cell lysate and the mixture was gently shaken for 30 minutes at 4° C. The mixture was applied to a column and the column was washed once with 50 mM Tris-HCl buffer (pH 7.4) containing 160 mM KCl and 5 mM of DTT to reduce thiol group, and washed several times with the same buffer without DTT to remove DTT. For DAN labeling, 100 μg of acrylodan was added to the column at this stage and incubated 16 hours at 4° C. The excess acrylodan was removed by washing the column with the buffer several times. Thrombin (Invitrogen) was added to column to remove the GST tag and the mixture was incubated at 4° C. for 10 hours. The labeled protein was eluted from the column by and the collected fractions were applied to ion exchange column. Purity and the concentration of the recombinant proteins were determined by sodium dodecylsulfate-polyacrylamide gel electrophoresis and bicinchoninic acid assay, respectively. The DAN labeling yield of eENTH, which was calculated as the molar ratio of DAN (determined spectrophotometrically at 391 nm using its extinction coefficient of 20,000 cm^−1 M^−1) to protein, was typically 60-70%.
# LUVs were prepared by extrusion using a 100 nm-pore membrane. GUVs were prepared by electroformation. […]
compound,measurement,setting,value
"CCCCCCCCCCCCCCCC(=O)OC[C@H](COP(=O)(O)O[C@@H]1[C@H](O)[C@H](O)[C@@H](OP(=O)(O)O)[C@H](OP(=O)(O)O)[C@H]1O)OC(=O)CCCCCCCCCCCCCCC [PtdIns(4,5)P2, phosphatidylinositol-4,5-bisphosphate]","Kd for PtdIns(4,5)P2 (F450/F520 ratiometric analysis)","[1]; F450/F520 versus [PtdIns(4,5)P2], LUVs",1.2+/−0.2 mol %
same,"Kd for PtdIns(4,5)P2 (F450 analysis)","[1]; F450 versus [PtdIns(4,5)P2], 500 nM DAN-eENTH, LUVs",1.2+/−0.2 mol %
same,Kd,"[1]; F450 versus [PtdIns(4,5)P2], assumes only half of total lipids available to the sensor, read-out: Kd for PtdIns(4,5)P2 (F450 analysis, converted)",60 nM
same,Kd,"[2]; SPR, POPC/POPS/PtdIns(4,5)P2 (77:20:3) LUVs, 20 mM Tris-HCl pH 7.4, 0.16 M KCl, read-out: Kd for PtdIns(4,5)P2",4 nM
same,"affinity for PtdIns(4,5)P2-containing vesicles relative to eENTH",[2]; higher than eENTH,about 3 fold
same,"affinity for PtdIns(4,5)P2-containing vesicles relative to wild type",[2]; higher than the wild type,12 fold
